Experimental data as given in PubChem BioAssay AID1117352.
Activity calls are given as the source filed them. No rule for the calls is given here.

Tested on: DLD-1 viability, CellTiter-Glo ATP luminescence
Test: Dose-response reduction of DLD-1 viability by CellTiter-Glo luminescence, IC50 (AID 1117352)

Structure (SMILES)	IC50
Cc1ccc([N+](=O)[O-])[c]2c1[O][Hg]2	1620 nM
O=C1[O][Bi][O]c2ccccc21	> 20000 nM (inactive)
O=C(O)C1(C(=O)O)CCC1.[NH2-].[NH2-].[Pt+2]	> 20000 nM (inactive)
CC(=O)[O][Hg][c]1ccccc1	736 nM
OCCN1CCN(CC/C=C2/c3ccccc3Sc3ccc(C(F)(F)F)cc32)CC1	1470 nM
CCCCCCCCCCCCCC[N+](C)(C)C	475 nM
